Reference: patent publication US20230124862A1, “BISMUTH THIOL COMPOUNDS AND COMPOSITIONS AND METHODS OF TREATING MICROBIAL CO-INFECTIONS” (Microbion Corporation, priority 2020, published 2023)
Several values for one entry are separate records, joined by “and”; a condition that tells them apart may be missing. Equal entries are not always repeated. Where two headings read alike, the source gives them in different places.

Type: in vivo, beagle dogs
Protocol: Once adequately conditioned to the restraint device and face-masks, the animals are individually exposed to the test article aerosols. Animals receive a single face-mask inhalation exposure in a ramp study design to test article aerosols for up to 60 min. Animal observations during and post exposure determine the tolerance of inhaled BisEDT aerosols.
Blood Collections and Bioanalytical Analysis: Blood are collected for pharmacokinetic (PK) analysis prior to exposure, then at 4 hr (±5 min) post exposure, and again on Day 1, Day 2, Day 7 (pre- and 4 hr (±5 min)-post exposure), Day 8, Day 9, Day 10, Day 11, Day 12, Day 13, and Day 14. A total of 0.25 mL is collected at each timepoint. No PK blood is collected from the vehicle control (Group 1) animals; only animals exposed to BisEDT have blood collected for PK analysis. Collected samples are flash frozen without processing for shipment to Medpace for bioanalytical analysis. Additional blood is collected from all animals in all groups for hematology (1 mL) and clinical chemistry (1 mL) at baseline, Day 7 (pre-exposure), and again at euthanasia. Blood (2-2 mL) is collected from all animals at necropsy for coagulation analysis (d-Dimer, fibrinogen, PT, and PTT).
For clinical chemistry analyses, whole blood (1 mL) is placed into serum separator or clot tube and […] by centrifugation at a minimum of 1300 g at 2 to 8° C. for 10 (±1) min. Plasma samples are stored at −70 to −90° C. until analysis.
Clinical chemistry samples are analyzed on a Hitachi Modular Analytics Clinical Chemistry System (Roche Diagnostics, Indianapolis, Ind.).

Which AGR (dog 2001 Male) does the source give for C1C[S][Bi]([S]CC[S][Bi]2[S]CC[S]2)[S]1 [BisEDT, Bismuth-1,2-ethanedithiol] here?
The AGR was 1.9 and 2.0 and 1.8.

What about the ALB (dog 2001 Male) of the same molecule?
Its ALB is 3.3 g/dL and 3.4 g/dL and 3.5 g/dL.

And the ALPK (dog 2001 Male)?
Its ALPK is 130 IU/L and 140 IU/L and 128 IU/L.

And the ALT (dog 2001 Male)?
Its ALT is 22 IU/L.

And the AST (dog 2001 Male)?
Its AST is 48 IU/L and 36 IU/L.

What about the BUN (dog 2001 Male) of the same molecule?
Its BUN is 12 mg/dL and 16 mg/dL and 15 mg/dL.

What about the CA2 (dog 2001 Male) of the same molecule?
Its CA2 is 10.9 mg/dL and 10.8 mg/dL and 11.0 mg/dL.

What about the CHOL (dog 2001 Male) of the same molecule?
Its CHOL is 168 mg/dL and 167 mg/dL and 152 mg/dL.

And the CREA (dog 2001 Male)?
Its CREA is 0.7 mg/dL and 0.6 mg/dL.

And the Cl (dog 2001 Male)?
The Cl was 109 mmo/L and 113 mmo/L and 108 mmo/L.

And the GGT (dog 2001 Male)?
Its GGT is 3 IU/L.

And the GLOB (dog 2001 Male)?
Its GLOB is 1.7 g/dL and 2.0 g/dL.

What about the GLUC (dog 2001 Male) of the same molecule?
Its GLUC is 91 mg/dL and 97 mg/dL and 102 mg/dL.

And the K (dog 2001 Male)?
Its K is 4.5 mmo/L and 4.9 mmo/L and 4.7 mmo/L.

What about the Na (dog 2001 Male) of the same molecule?
Its Na is 149 mmo/L and 147 mmo/L.

And the TBIL (dog 2001 Male)?
Its TBIL is 0.15 mg/dL.

What about the TP (dog 2001 Male) of the same molecule?
The TP was 5.0 g/dL and 5.1 g/dL and 5.5 g/dL.

And the TRIG (dog 2001 Male)?
Its TRIG is 66 mg/dL and 80 mg/dL and 63 mg/dL.

And the AGR (dog 2002 Female)?
The AGR was 1.7 and 2.3.

What about the ALB (dog 2002 Female) of the same molecule?
The ALB was 3.3 g/dL and 3.6 g/dL and 3.7 g/dL.

And the ALT (dog 2002 Female)?
Its ALT is 18 IU/L and 29 IU/L and 27 IU/L.

What about the AST (dog 2002 Female) of the same molecule?
Its AST is 35 IU/L and 41 IU/L and 38 IU/L.

What about the BUN (dog 2002 Female) of the same molecule?
Its BUN is 13 mg/dL and 14 mg/dL.

What about the CA2 (dog 2002 Female) of the same molecule?
The CA2 was 10.9 mg/dL and 10.8 mg/dL and 10.6 mg/dL.

What about the CHOL (dog 2002 Female) of the same molecule?
Its CHOL is 138 mg/dL and 123 mg/dL and 114 mg/dL.

What about the CREA (dog 2002 Female) of the same molecule?
Its CREA is 0.6 mg/dL.

And the Cl (dog 2002 Female)?
Its Cl is 110 mmo/L and 114 mmo/L and 113 mmo/L.

What about the GGT (dog 2002 Female) of the same molecule?
The GGT was 3 IU/L.

What about the GLOB (dog 2002 Female) of the same molecule?
Its GLOB is 1.9 g/dL and 1.6 g/dL.

And the GLUC (dog 2002 Female)?
Its GLUC is 95 mg/dL and 98 mg/dL and 89 mg/dL.

And the K (dog 2002 Female)?
The K was 5.0 mmo/L and 5.2 mmo/L and 4.6 mmo/L.

And the Na (dog 2002 Female)?
Its Na is 149 mmo/L and 147 mmo/L and 148 mmo/L.

And the TBIL (dog 2002 Female)?
The TBIL was 0.15 mg/dL.

What about the TP (dog 2002 Female) of the same molecule?
Its TP is 5.2 g/dL and 5.3 g/dL.

And the TRIG (dog 2002 Female)?
The TRIG was 38 mg/dL and 39 mg/dL and 31 mg/dL.

And the AGR (dog 3001 Male)?
The AGR was 2.0 and 2.1.

And the ALB (dog 3001 Male)?
The ALB was 3.2 g/dL and 3.4 g/dL.

And the ALPK (dog 3001 Male)?
The ALPK was 142 IU/L and 135 IU/L and 121 IU/L.

And the ALT (dog 3001 Male)?
Its ALT is 26 IU/L and 24 IU/L and 22 IU/L.

And the AST (dog 3001 Male)?
Its AST is 30 IU/L and 32 IU/L and 33 IU/L.

And the CA2 (dog 3001 Male)?
The CA2 was 10.7 mg/dL and 10.5 mg/dL and 10.0 mg/dL.

And the CHOL (dog 3001 Male)?
Its CHOL is 100 mg/dL and 111 mg/dL.

And the CREA (dog 3001 Male)?
The CREA was 0.6 mg/dL and 0.7 mg/dL and 1.0 mg/dL.

What about the Cl (dog 3001 Male) of the same molecule?
Its Cl is 111 mmo/L and 110 mmo/L and 109 mmo/L.

And the GGT (dog 3001 Male)?
The GGT was 3 IU/L.

What about the GLOB (dog 3001 Male) of the same molecule?
The GLOB was 1.6 g/dL and 1.7 g/dL.

What about the GLUC (dog 3001 Male) of the same molecule?
Its GLUC is 100 mg/dL and 88 mg/dL and 51 mg/dL.

What about the K (dog 3001 Male) of the same molecule?
Its K is 4.7 mmo/L and 5.1 mmo/L and 5.8 mmo/L.

And the Na (dog 3001 Male)?
The Na was 146 mmo/L and 148 mmo/L.

What about the TBIL (dog 3001 Male) of the same molecule?
The TBIL was 0.15 mg/dL.

What about the TP (dog 3001 Male) of the same molecule?
The TP was 4.8 g/dL and 5.1 g/dL and 5.0 g/dL.

And the TRIG (dog 3001 Male)?
The TRIG was 26 mg/dL and 34 mg/dL and 52 mg/dL.

And the AGR (dog 3002 Female)?
Its AGR is 2.3 and 1.8 and 2.6.

What about the ALB (dog 3002 Female) of the same molecule?
Its ALB is 3.5 g/dL and 3.7 g/dL.

And the ALPK (dog 3002 Female)?
Its ALPK is 164 IU/L and 90 IU/L and 176 IU/L.

What about the ALT (dog 3002 Female) of the same molecule?
Its ALT is 28 IU/L and 20 IU/L.

What about the AST (dog 3002 Female) of the same molecule?
Its AST is 36 IU/L and 28 IU/L and 30 IU/L.

What about the CA2 (dog 3002 Female) of the same molecule?
The CA2 was 11.2 mg/dL and 10.8 mg/dL and 10.4 mg/dL.

And the CHOL (dog 3002 Female)?
The CHOL was 126 mg/dL and 175 mg/dL and 141 mg/dL.

And the CREA (dog 3002 Female)?
Its CREA is 0.6 mg/dL and 0.5 mg/dL and 0.9 mg/dL.

What about the Cl (dog 3002 Female) of the same molecule?
Its Cl is 112 mmo/L and 109 mmo/L and 110 mmo/L.

What about the GGT (dog 3002 Female) of the same molecule?
Its GGT is 3 IU/L.

And the GLOB (dog 3002 Female)?
The GLOB was 1.5 g/dL and 2.0 g/dL and 1.4 g/dL.

What about the GLUC (dog 3002 Female) of the same molecule?
The GLUC was 112 mg/dL and 90 mg/dL and 65 mg/dL.

And the K (dog 3002 Female)?
The K was 5.5 mmo/L and 5.3 mmo/L and 5.9 mmo/L.

And the Na (dog 3002 Female)?
Its Na is 149 mmo/L and 145 mmo/L.

What about the TBIL (dog 3002 Female) of the same molecule?
Its TBIL is 0.15 mg/dL.

And the TP (dog 3002 Female)?
Its TP is 5.0 g/dL and 5.5 g/dL and 5.1 g/dL.

What about the TRIG (dog 3002 Female) of the same molecule?
The TRIG was 34 mg/dL and 43 mg/dL and 58 mg/dL.

And the AGR (dog 4001 Male)?
The AGR was 2.3 and 1.8 and 1.9.

And the ALB (dog 4001 Male)?
Its ALB is 3.6 g/dL and 3.4 g/dL and 3.2 g/dL.

And the ALPK (dog 4001 Male)?
The ALPK was 103 IU/L and 114 IU/L and 119 IU/L.

What about the ALT (dog 4001 Male) of the same molecule?
Its ALT is 27 IU/L and 28 IU/L.

And the AST (dog 4001 Male)?
Its AST is 32 IU/L and 39 IU/L and 34 IU/L.

And the BUN (dog 4001 Male)?
Its BUN is 11 mg/dL and 12 mg/dL.

And the CA2 (dog 4001 Male)?
The CA2 was 10.8 mg/dL and 10.6 mg/dL and 10.4 mg/dL.

What about the CHOL (dog 4001 Male) of the same molecule?
Its CHOL is 153 mg/dL and 147 mg/dL and 111 mg/dL.

What about the CREA (dog 4001 Male) of the same molecule?
Its CREA is 0.7 mg/dL and 0.6 mg/dL.

What about the Cl (dog 4001 Male) of the same molecule?
The Cl was 120 mmo/L and 116 mmo/L and 113 mmo/L.

What about the GGT (dog 4001 Male) of the same molecule?
The GGT was 3 IU/L.

What about the GLOB (dog 4001 Male) of the same molecule?
The GLOB was 1.6 g/dL and 1.9 g/dL and 1.7 g/dL.

And the GLUC (dog 4001 Male)?
The GLUC was 102 mg/dL and 82 mg/dL and 86 mg/dL.

What about the K (dog 4001 Male) of the same molecule?
Its K is 4.7 mmo/L and 4.8 mmo/L.

What about the Na (dog 4001 Male) of the same molecule?
Its Na is 152 mmo/L and 147 mmo/L and 145 mmo/L.

What about the TBIL (dog 4001 Male) of the same molecule?
Its TBIL is 0.15 mg/dL.

What about the TP (dog 4001 Male) of the same molecule?
The TP was 5.2 g/dL and 5.3 g/dL and 4.9 g/dL.

And the TRIG (dog 4001 Male)?
Its TRIG is 49 mg/dL and 46 mg/dL and 40 mg/dL.

And the AGR (dog 4002 Female)?
Its AGR is 1.7 and 1.8.

And the ALB (dog 4002 Female)?
Its ALB is 3.5 g/dL.

What about the ALPK (dog 4002 Female) of the same molecule?
Its ALPK is 147 IU/L and 103 IU/L.

And the ALT (dog 4002 Female)?
The ALT was 20 IU/L and 21 IU/L.

What about the AST (dog 4002 Female) of the same molecule?
Its AST is 32 IU/L and 35 IU/L.

And the BUN (dog 4002 Female)?
The BUN was 13 mg/dL and 12 mg/dL.

And the CA2 (dog 4002 Female)?
Its CA2 is 11.1 mg/dL and 11.2 mg/dL.

And the CHOL (dog 4002 Female)?
The CHOL was 182 mg/dL and 169 mg/dL.

What about the CREA (dog 4002 Female) of the same molecule?
Its CREA is 0.6 mg/dL and 0.5 mg/dL.

And the Cl (dog 4002 Female)?
The Cl was 116 mmo/L and 112 mmo/L.
